Data reported in PubChem BioAssay AID1259407 (Chemical Carcinogenesis Research Information System (CCRIS), 2018).
Active and inactive are the calls of the source. No rule for the calls is given here.

Tested on: CCRIS mutagenicity, Ames/micronucleus/aberration tests
Assay: CCRIS mutagenicity studies
Conditions: Method: PREINCUBATION

Measured: mutagenic call

CNC(=C[N+](=O)[O-])NCCSCc1ccc(CN(C)C)o1
inactive: Test System: AMES SALMONELLA TYPHIMURIUM, Strain/Indicator: TA92, Metabolic Activation: NONE inactive; negative | Test System: AMES SALMONELLA TYPHIMURIUM, Strain/Indicator: TA92, Metabolic Activation: RAT, LIVER, S-9, PHENOBARBITAL AND 5,6-BENZOFLAVONE inactive; negative | Test System: AMES SALMONELLA TYPHIMURIUM, Strain/Indicator: TA94, Metabolic Activation: NONE inactive; negative | Test System: AMES SALMONELLA TYPHIMURIUM, Strain/Indicator: TA94, Metabolic Activation: RAT, LIVER, S-9, PHENOBARBITAL AND 5,6-BENZOFLAVONE inactive; negative | Test System: AMES SALMONELLA TYPHIMURIUM, Strain/Indicator: TA98, Metabolic Activation: NONE inactive; negative | Test System: AMES SALMONELLA TYPHIMURIUM, Strain/Indicator: TA98, Metabolic Activation: RAT, LIVER, S-9, PHENOBARBITAL AND 5,6-BENZOFLAVONE inactive; negative | Test System: AMES SALMONELLA TYPHIMURIUM, Strain/Indicator: TA100, Metabolic Activation: NONE inactive; negative | Test System: AMES SALMONELLA TYPHIMURIUM, Strain/Indicator: TA100, Metabolic Activation: RAT, LIVER, S-9, PHENOBARBITAL AND 5,6-BENZOFLAVONE inactive; negative | Test System: AMES SALMONELLA TYPHIMURIUM, Strain/Indicator: TA1535, Metabolic Activation: NONE inactive; negative | Test System: AMES SALMONELLA TYPHIMURIUM, Strain/Indicator: TA1535, Metabolic Activation: RAT, LIVER, S-9, PHENOBARBITAL AND 5,6-BENZOFLAVONE inactive; negative | Test System: AMES SALMONELLA TYPHIMURIUM, Strain/Indicator: TA1537, Metabolic Activation: NONE inactive; negative | Test System: AMES SALMONELLA TYPHIMURIUM, Strain/Indicator: TA1537, Metabolic Activation: RAT, LIVER, S-9, PHENOBARBITAL AND 5,6-BENZOFLAVONE inactive; negative | Test System: AMES SALMONELLA TYPHIMURIUM, Strain/Indicator: TA1538, Metabolic Activation: NONE inactive; negative | Test System: AMES SALMONELLA TYPHIMURIUM, Strain/Indicator: TA1538, Metabolic Activation: RAT, LIVER, S-9, PHENOBARBITAL AND 5,6-BENZOFLAVONE inactive; negative | Test System: E. COLI, Strain/Indicator: WP2 UVRA, Metabolic Activation: NONE inactive; negative | Test System: E. COLI, Strain/Indicator: WP2 UVRA, Metabolic Activation: RAT, LIVER, S-9, PHENOBARBITAL AND 5,6-BENZOFLAVONE inactive; negative
